Ends that are not written are not given here.
Legend:
Type in all cases: cell-based
[1] = tested on: human sperm; assay: Sperm motion analysis (computerized semen analyzer); conditions: for Effect on motility characteristics (velocity, ALH, beat frequency) / Effect on the percentage of motile sperm cells: peptide 0.5 micrograms per hundred microliters; for ALH (amplitude of lateral head displacement) (Mean ± S.D.) / Beat Frequency (Mean ± S.D.) / Linearity (Mean ± S.D.) / Percent Motility / Velocity (Mean ± S.D.): thymosins 0.5 μg/100 μl, 5 to 6 hours
Description: After incubation with thymosin peptides or their antibodies for 5 to 6 hours as described above, an aliquot (7 microliters) of the sperm suspension was placed into a Makler chamber (Sefi Medical Instruments, Israel) and the sperm motion characteristics measured using a computerized semen analyzer (Cell Soft Cryo Resources, N.Y.). The parameter settings were 30 frames analyzed at an image frequency of 30 Hz, 3 frames minimum sampling for motility, 15 frames minimum sampling for both velocity and amplitude of the lateral head movement ("ALH") measurements, 10 micrometers per second threshold velocity, minimum linearity of 2.5 for ALH measurements and a cell size range of 4-40 pixels with a magnification calibration of 0.688 micrometers per pixel.

[2] = tested on: human sperm; assay: Assessment of acrosomal status (triple stain) of human sperm; conditions: for Effect on capacitation and acrosome reaction of human sperm cells: 0.5 micrograms/microliter, 5-6 hours, with or without ionophore; for Acrosome reacted sperm (%) (Mean ± SD): thymosins 0.5 μg/100 μl
Description: Motile sperm were collected from fertile men by the swim up procedure as set forth in Naz et al., referenced above. Good quality sperm samples, i.e., (5×10^6 motile sperm per milliliter), greater than 75% motility, +3 to +4 forward progression on a scale of 0 to +5 were incubated with Tα1 or Tβ4 or anti-Tα1 antibodies or anti-Tβ4 antibodies. The controls were treated with the same amount of normal rabbit serum, anti-KLH antibodies, anti-HGP 30 antibodies or PBS-BSA as previously described. After incubation, the spermatozoa were centrifuged, washed in PBS and divided into two aliquots. One aliquot was induced to acrosome react with calcium ionophore (Calcium ionophore A23187 (Sigma)) and incubated with sperm suspension for one hour. The other aliquot was allowed to spontaneously acrosome react without treating with calcium ionophore. Calcium ionophore treatment was carried out to induce acrosome reaction of the capacitated sperm. The acrosomal status was assessed using the triple stain procedure described by Jager et al., Arch. Androl., 12:53-58 (1984). The sperm were washed twice in PBS and then incubated at 37° C. for fifteen minutes with 2% Trypan blue (Sigma 1:1 v/v) in PBS. After incubation, the sperm were washed twice, fixed in three percent glutaraldehyde, 0.1M cacodylate buffer for sixty minutes and then twice washed again in PBS. A drop of this suspension was placed on a glass slide and allowed to air dry overnight. The dried slide was stained with 0.8% Bismark Brown (Sigma) in deionized water (pH 1.8 with 2N HCl), rinsed in deionized water and stained for 45 minutes at room temperature in 0.8% Rose Bengal (Sigma) in 0.1M cacodylate buffer at pH 6.0. The slides were again washed in deionized water, dehydrated in an alcohol series, cleared in xylene and mounted with permount and a coverslip. A total of 200-500 sperm per sample were evaluated and recorded as either alive or dead. The alive sperm were further evaluated as acrosome-intact or acrosome-non-intact (reacted) sperm. The experiments were repeated 3-5 times using sperm of at least three different fertile donors.

[3] = tested on: human sperm; assay: Assessment of acrosin distribution (BAPNA acrosin activity in cells and supernatant); conditions: for Effect on acrosin distribution vs PBS-BSA treated sperm: peptide 0.5 micrograms/100 microliters, with or without ionophore; for Acrosin activity, cells (Mean ± SD) / Acrosin activity, supernatant (Mean ± SD): thymosins 0.5 μg/100 μl
Description: After incubation with the thymosin peptides or the anti-thymosin antibodies or control antibodies or PBS-BSA and with or without treating with calcium ionophore A23187 for one hour as described above, the sperm cells were centrifuged and the acrosin activity determined in the supernatant and cells by the method of Kennedy et al., J. Androl., 10:21-27 (1989). Ninety microliters of the supernatant or the pelleted sperm cells suspended in 90 microliters of PBS were mixed with one milliliter of the reaction mixture. The reaction mixture comprises one milligram per milliliter of N-benzoyl-dl-arginine-P-nitraniline (BAPNA) hydrochloride in 0.055M HEPES buffer, 0.055M NaCl, 10% v/v (dimethylsulfoxide), 0.1% v/v TRITON X-100 (t-Octylphenoxypolyethoxyethanol). The solution then was incubated for three hours at room temperature. The reaction was stopped by the addition of 100 microliters of 0.5M benzamidine and the absorbance measured at 405 nanometers using a Beckman spectrophotometer. Acrosin activity was expressed as μIU/10^6 spermatozoa. The daily variability of the assay was normalized using a cryopreserved partially-purified human acrosin extract. The preparation of such extracts is taught by Naz et al., J. Cell Sci., 102:487-494 (1992).

[4] = tested on: human sperm; assay: Human sperm penetration assay of zona-free hamster oocytes (SPA); conditions: for Ova penetrated, % of control (mean ± SD): 5-6 hours, sperm of fertile men
Description: Human sperm penetration assay of zona-free-hamster oocytes (SPA) was performed as described in Naz et al., J. Cell Sci., 102:487-494 (1992). Superovulation was induced in adult female golden hamsters by intraperitoneal injections of 30 IU eCG (pregnant mare serum gonadotropin)(Sigma Chemical Co., St. Louis, Mo.) on day 1 of the cycle. After 55-72 hours, 20 IU hCG (human chorionic gonadotropin) (Sigma) were administered intraperitoneally. 15-17 hours later the animals were sacrificed and the mature unfertilized ova were collected from the oviducts. The ova were separated from the surrounding cumulus cells by incubation with 0.2% hyaluronidase in Biggers, Witten and Wittingham (BWW) medium and from the zonae pellucida by treatment with 0.1% pancreatic trypsin in BWW. The zona-free ova were twice washed in BWW and placed in the center of a tissue culture dish.
Semen from a fertile person was liquified for 15-30 minutes at 37° C. and the swim-up sperm population was collected. Collection techniques are described in Naz et al., J. Cell Sci., 99:157-165 (1991). The sperm cells from the swim-up were washed with BWW supplemented with 1% BSA (Sigma Chemical Co.) adjusted to 5-10×10^6 motile sperm per milliliter and then allowed to incubate for 5-6 hours at 37° C. ([…]) or polyclonal antisera elicited in response to those immunogens (10-20 microliters of antiserum/100 microliters of sperm suspension) or the same amount of control antibodies (normal rabbit serum, anti-KLH antibodies or anti-HGP-30 antibodies) or the equivalent volume of PBS containing 0.5% BSA (PBS/BSA). After incubation the sperm were washed to remove the unreacted thymosin or anti-thymosin antibody and co-incubated with the zona-denuded hamster oocytes (30-50 eggs/treatment in each assay) for three to four hours. The oocytes were removed, thoroughly washed, fixed with 3% […] and stained with acetocarmine solution. Sperm penetration was determined by the presence of a swollen spermhead with a discernable tail in the cytoplasm of the ovum. Motility of sperm before and after incubation with ova was recorded. The assays were repeated at least three to eight times using different fertile donors and each sample tested with at least 82-480 oocytes.
The percentage of ova penetrated was calculated according to the following formula; [formula]

[5] = peptide 0.1 μg/100 μl sperm suspension
[6] = peptide 0.5 μg/100 μl sperm suspension
[7] = peptide 2.0 μg/100 μl sperm suspension
[8] = peptide 10.0 μg/100 μl sperm suspension

Substance	Effect on motility characteristics (velocity, ALH, beat frequency) [1]	Effect on the percentage of motile sperm cells [1]	ALH (amplitude of lateral head displacement) (Mean ± S.D.) [1]	Beat Frequency (Mean ± S.D.) [1]	Linearity (Mean ± S.D.) [1]	Percent Motility [1]	Velocity (Mean ± S.D.) [1]	Effect on capacitation and acrosome reaction of human sperm cells [2]	Acrosome reacted sperm (%) (Mean ± SD) ([2]; with ionophore treatment)	Acrosome reacted sperm (%) (Mean ± SD) ([2]; without ionophore treatment)	Effect on acrosin distribution vs PBS-BSA treated sperm [3]	Acrosin activity, cells (Mean ± SD) ([3]; with ionophore treatment)	Acrosin activity, supernatant (Mean ± SD) ([3]; with ionophore treatment)	Acrosin activity, cells (Mean ± SD) ([3]; without ionophore treatment)	Acrosin activity, supernatant (Mean ± SD) ([3]; without ionophore treatment)	Ova penetrated, % of control (mean ± SD) [4, 5]	Ova penetrated, % of control (mean ± SD) [4, 6]	Ova penetrated, % of control (mean ± SD) [4, 7]	Ova penetrated, % of control (mean ± SD) [4, 8]	also measured
thymosin-β4 [Tβ4]	Neither Tβ4 peptide nor the control antibodies affected any motility characteristics	No effect	3.7 ± 0.4	13.1 ± 0.3	4.0 ± 0.6	76.0 ± 4.3%	58.5 ± 2.6	did not exhibit a significant effect	61.5 ± 4.8%	14.5 ± 2.1%	no significant effect	38.5 ± 7.1 μIU/10^6 spermatozoa	52.8 ± 16.2 μIU/10^6 spermatozoa	76.5 ± 9.1 μIU/10^6 spermatozoa	21.0 ± 14.4 μIU/10^6 spermatozoa	102.7 ± 6.5%	99.7 ± 10.1%	61.8 ± 27.9%	31.5 ± 12.2%	
thymosin-α1 (SDAAVDTSSEITTKDLKEKKEVVEEAEN; not fully specified; ends and bridges not checked; UniProt P06454 2-29, looked up) [Tα1, Thymus factor peptide; available from Alpha 1 Biomedicals]	significantly affected the velocity, ALH and beat frequency	No effect	4.0 ± 0.3	13.7 ± 0.6	3.9 ± 0.6	80.3 ± 6.2%	61.1 ± 3.0	significantly enhanced capacitation and acrosome reaction	69.2 ± 3.6%	18.5 ± 3.5%	significantly higher quantity of acrosin concentration released in the supernatant and a lower quantity of acrosin concentration in the sperm cells	30.6 ± 7.2 μIU/10^6 spermatozoa	68.2 ± 16.6 μIU/10^6 spermatozoa	64.5 ± 6.4 μIU/10^6 spermatozoa	27.5 ± 13.4 μIU/10^6 spermatozoa	251.0 ± 36.3%	204.0 ± 13.9%	100.5 ± 0.7%	102.2 ± 18.9%	Fold increase of percentage of ova penetrated compared to PBS-BSA-treated control sperm ([4]; 0.05 to 0.5 μg Tα1/100 μl sperm suspension, P<0.001): up to 2.6 fold; Ova penetrated, % of control (mean ± SD) ([4]; peptide 0.01 μg/100 μl sperm suspension): 120.3 ± 11.6%; Ova penetrated, % of control (mean ± SD) ([4]; peptide 0.05 μg/100 μl sperm suspension): 268.2 ± 26.4%

— US5585234A, “Treatment of infertile sperm in vitro with thymosin α1 to enhance penetration of mammalian ova” (The George Washington University Medical Center, priority 1994, dated 1996)
